Results from patent publication US20240008473A1, “DEVICE AND METHOD TO DISTRIBUTE AIR TREATMENT SUBSTANCE” (Discovery Purchaser Corporation, priority 2020, published 2024).

Key:
[1] = 25° C.; cited from earlier work
[2] = TGA (thermogravimetric analysis) measurements on TFL technical; assay type: physicochemical
Experimental: TGA (Thermogravimetric analysis) measurements were performed on TFL technical (release profile measurements done at isothermal (55° C.) and at constant temperature increase ratio (3K/mn)), and from that, it was discovered that release kinetic at “usual” candle melting temp (50-70° C.) would not allow enough TFL release to get expected efficacy, and that TFL release is not linear. It was determined as well that release onset for TFL is around 100° C. and far higher release ratio occurs at higher temperatures. The calculated estimated ideal temperature for TFL, for outdoor use, from the TGA measurement would be around 150° C.
TGA (Thermal Gravimetric Analysis) for TFL was run, which allows characterization of the release profile of an active ingredient as a function of the temperature. […] Thus, TFL release was pretty low in the range of the “usual candle wax melting temperature”, and it was not be possible to get the needed release rate. (which is the reason why TFL was mainly burnt before being released when incorporated directly into a candle). At such a temperature range, it would hardly possible (considering the potential TFL loading into the candle and candle size) to reach a release above 2-3 mg/h which is far below our 20-25 mg/h needed for outdoor use. • Based on the TGA measurement, it can be seen that to reach the desired 25 mg/h release rate for TFL, the pod temp should be >130-140° C.
(before a typical flame temperature). […] This amount is much lower than the desired 25 mg/h release rate.

[3] = 15 mg flakes, temperature ramp 3K/min, continuous N2-flow

Row | Compound | Vapor pressure [1] [mPa @25 °C] | also measured
1 | C#CCN1CC(=O)N(COC(=O)[C@@H]2C(C=C(C)C)C2(C)C)C1=O (mixture of isomers) [Imiprothrin] | 1.85 | –
2 | C#CC(OC(=O)C1C(C=C(C)C)C1(C)C)/C(C)=C/CC (centres unmarked) [Empenthrin] | 15.4 | –
3 | C/C=C/C1C(C(=O)OCc2c(F)c(F)c(COC)c(F)c2F)C1(C)C (centres unmarked) [Metofluthrin] | 1.96 | –
4 | C#CCC1=C(C)C(OC(=O)C2C(C=C(C)C)C2(C)C)CC1=O (centres unmarked) [Prallethrin] | 0.6 | –
5 | CC=CC1C(C(=O)OCc2c(F)c(F)c(C)c(F)c2F)C1(C)C (centres unmarked) [Profluthrin] | 10.3 | –
6 | CC1(C)[C@H](C=C(Cl)Cl)[C@H]1C(=O)OCc1c(F)c(F)cc(F)c1F [TFL, Transfluthrin] | 2 | complete evaporation [2, 3]: 255 °C; onset of evaporation [2, 3]: around 100 °C; reachable release at usual candle wax melting temperature ([2]; 50-80° C., TFL loaded into candle): 2 to 3 mg/h; release onset for TFL ([2]; TGA on TFL technical, isothermal (55° C.) and 3K/mn ramp): around 100 °C; active ingredient release below 100-110° C. ([2]; TGA, FIG. 9A): very little release; TFL evaporation rate ([2]; at 55° C. candle melting temperature, TGA conditions): < 0.03 mg/h; pod temp to reach the desired 25 mg/h release rate ([2]; based on the TGA measurement): 130-140 °C
7 | CC(C)=CC1C(C(=O)OCN2C(=O)C3=C(CCCC3)C2=O)C1(C)C (centres unmarked) [Tetramethrin] | 2.11 | –
